Experimental findings from ChEMBL document CHEMBL1145886, “Design, synthesis, and biological evaluation of 6-substituted-3-(4-methanesulfonylphenyl)-4-phenylpyran-2-ones: a novel class of diarylheterocyclic selective cyclooxygenase-2 inhibitors” (J Med Chem, 2003) are described below.

Test [1] addresses T1, Prostaglandin G/H synthase 1 (Ovis aries, UniProt P05979).
T1 sequence (P05979 whole entry): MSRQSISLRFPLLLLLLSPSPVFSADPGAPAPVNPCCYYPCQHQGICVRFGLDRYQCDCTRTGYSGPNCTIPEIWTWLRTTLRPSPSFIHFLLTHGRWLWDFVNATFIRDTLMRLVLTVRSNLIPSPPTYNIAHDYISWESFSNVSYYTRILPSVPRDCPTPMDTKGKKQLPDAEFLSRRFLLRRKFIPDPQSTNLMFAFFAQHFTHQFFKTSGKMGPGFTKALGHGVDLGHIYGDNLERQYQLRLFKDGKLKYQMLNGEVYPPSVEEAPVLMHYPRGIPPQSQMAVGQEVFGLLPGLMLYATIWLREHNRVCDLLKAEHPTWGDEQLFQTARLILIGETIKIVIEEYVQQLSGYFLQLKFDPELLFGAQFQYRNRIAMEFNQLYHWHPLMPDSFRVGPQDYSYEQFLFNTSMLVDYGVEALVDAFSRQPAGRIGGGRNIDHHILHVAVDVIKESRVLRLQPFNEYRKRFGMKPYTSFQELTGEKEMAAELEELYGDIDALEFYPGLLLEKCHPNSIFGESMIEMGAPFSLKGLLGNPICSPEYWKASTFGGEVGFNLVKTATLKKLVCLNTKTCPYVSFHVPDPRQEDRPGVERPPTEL
Description: In vitro inhibitory activity against Prostaglandin G/H synthase 1 (COX-1)

Test [2] concerns the target T2, Prostaglandin G/H synthase 2 (Bos taurus, UniProt O62698).
T2 sequence (O62698 whole entry): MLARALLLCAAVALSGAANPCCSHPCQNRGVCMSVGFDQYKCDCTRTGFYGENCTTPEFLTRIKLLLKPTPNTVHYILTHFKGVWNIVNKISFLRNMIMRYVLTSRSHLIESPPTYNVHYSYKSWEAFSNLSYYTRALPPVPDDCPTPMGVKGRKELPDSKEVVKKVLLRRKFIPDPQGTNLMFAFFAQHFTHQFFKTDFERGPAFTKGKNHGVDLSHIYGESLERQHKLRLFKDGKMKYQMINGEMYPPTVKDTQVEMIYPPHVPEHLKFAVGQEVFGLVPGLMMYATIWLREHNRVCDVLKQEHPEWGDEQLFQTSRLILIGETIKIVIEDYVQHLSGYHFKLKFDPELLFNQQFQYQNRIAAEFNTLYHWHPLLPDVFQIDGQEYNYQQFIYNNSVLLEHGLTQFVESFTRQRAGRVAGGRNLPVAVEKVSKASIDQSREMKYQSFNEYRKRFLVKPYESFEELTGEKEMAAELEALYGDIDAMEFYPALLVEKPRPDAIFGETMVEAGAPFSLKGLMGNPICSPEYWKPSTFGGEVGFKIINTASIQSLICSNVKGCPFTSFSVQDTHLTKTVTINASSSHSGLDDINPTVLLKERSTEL
Description: In vitro inhibitory activity against prostaglandin G/H synthase 2 (COX-2)

Test [3] relates to Rattus norvegicus. Nature of the test: Analgesic activity was determined in rat using 4% sodium chloride-induced abdominal constriction assay at a duration of 60 min following a 1 mg/kg intraperitoneal dose. The test is classed as functional. The settings on record: Abdomen, ip, 1 h.
In test [4] the test system is Rattus norvegicus. Nature of the test: In vivo antiinflammatory activity against rat carrageenan-induced foot paw edema model at 5 hr following a 1 mg/kg oral dose. It counts as functional.
The subject of test [5] is Rattus norvegicus. Kind of test: Analgesic activity was determined in rat using 4% sodium chloride-induced abdominal constriction assay at a duration of 30 min following a 1 mg/kg intraperitoneal dose. The test is classed as functional. The settings on record: Abdomen, ip, 0.5 h.
Test [6] has as its system Rattus norvegicus. Nature of the test: In vivo antiinflammatory activity against rat carrageenan-induced foot paw edema model at 3 hr following a 1 mg/kg oral dose. It counts as functional.
Test [7] concerns Rattus norvegicus. Nature of the test: In vivo antiinflammatory activity against rat carrageenan-induced foot paw edema model at 3 hr following a 1 mg/kg oral dose; NA is inactive. It counts as functional, organism-based. The arrangement: dose 1 mg/kg. The settings on record: at 1 mg/kg. A general note: Carrageenan injected into the paw causes an acute inflammation.

Structures are written as SMILES. The source made the active and inactive calls. The rule behind the calls is not given here.

One may read the IC50 as the concentration at which inhibition is half-maximal. For the compound `CC(C)COc1cc(-c2ccccc2)c(-c2ccc(S(C)(=O)=O)cc2)c(=O)o1`, the values for the concentration for half-maximal inhibition (IC50) in test [1] and in test [2] were 3.1 µM and 1.8 µM, respectively.

Consider `Cc1cc(-c2ccc(F)cc2)c(-c2ccc(S(C)(=O)=O)cc2)c(=O)o1`, for which the half-inhibitory concentration (IC50) was found to be 201 µM in test [1] and 125 µM in test [2].

The term inhibition in vivo denotes the relative decrease from the control value, in per cent. A lower inhibition in vivo goes with a response near the control. Turning to `CCSc1cc(-c2ccc(F)cc2)c(-c2ccc(S(C)(=O)=O)cc2)c(=O)o1`, the inhibition in vivo at 1 mg/kg with Rattus norvegicus [3] was 66%; with Rattus norvegicus [4], 16.8%; with Rattus norvegicus [5], 54.3%; in the test on Rattus norvegicus [6] it was 25.8%. Further, the IC50 was above 100 µM in test [1] and 1.44 µM in test [2].

For the compound `CCOc1cc(-c2ccc(F)cc2)c(-c2ccc(S(C)(=O)=O)cc2)c(=O)o1`, the inhibition in vivo at 1 mg/kg in the test on Rattus norvegicus [3] was 75.7%; in the test with Rattus norvegicus [4] it was 67.8%; with Rattus norvegicus [5], 42.8%; with Rattus norvegicus [6] it was 32.7%. In addition, the IC50 is 288 µM in test [1] and 0.1 µM in test [2].

Consider `CC(C)Cc1ccc(C(C)C(=O)O)cc1` (stereo not drawn) [IBUPROFEN], for which the inhibition in vivo at 1 mg/kg in the test on Rattus norvegicus [4] is 41.5%; in the test on Rattus norvegicus [6], 56.2%.

On to `CC(C)Oc1cc(-c2ccc(F)cc2)c(-c2ccc(S(C)(=O)=O)cc2)c(=O)o1`, for which the IC50 in test [1] was 560 µM; in test [2], 83.6 µM.

Regarding `CC(C)c1cc(-c2ccc(F)cc2)c(-c2ccc(S(C)(=O)=O)cc2)c(=O)o1`, the inhibition in vivo at 1 mg/kg in the test on Rattus norvegicus [3] was found to be 20.7%; with Rattus norvegicus [4], 69.1%; with Rattus norvegicus [5], 50.9%; with Rattus norvegicus [6], 35.8%. Besides, the IC50 was found to be 15.7 µM in test [1] and 13.6 µM in test [2].

Take `CC(C)(C)Oc1cc(-c2ccc(F)cc2)c(-c2ccc(S(C)(=O)=O)cc2)c(=O)o1`: the IC50 in test [1] is 68.5 µM; in test [2], 20.4 µM.

For the compound `CS(=O)(=O)c1ccc(-c2c(-c3ccccc3)cc(OCc3ccc(Cl)cc3)oc2=O)cc1`, the IC50 was 50.7 µM in test [1] and 416 µM in test [2].

Consider `CCSc1cc(-c2ccccc2)c(-c2ccc(S(C)(=O)=O)cc2)c(=O)o1`, for which the inhibition in vivo at 1 mg/kg was 77.4% in the test with Rattus norvegicus [3], 19.5% in the test with Rattus norvegicus [4], 81% in the test on Rattus norvegicus [5] and 9.2% in the test with Rattus norvegicus [6].

For `COc1cc(-c2ccccc2)c(-c2ccc(S(C)(=O)=O)cc2)c(=O)o1`, the inhibition in vivo at 1 mg/kg was 83.4% with Rattus norvegicus [3], 22% with Rattus norvegicus [4] and 55.2% in the test on Rattus norvegicus [5]. Moreover, in the test on Rattus norvegicus [7], the inhibition result was “inactive”.

Take `CS(=O)(=O)c1ccc(-c2c(-c3ccc(F)cc3)cc(OCc3ccc(Cl)cc3)oc2=O)cc1`: the IC50 in test [1] was 301 µM; in test [2], 53.3 µM.

For `CCCSc1cc(-c2ccccc2)c(-c2ccc(S(C)(=O)=O)cc2)c(=O)o1`, the IC50 in test [1] and in test [2] was above 100 µM each time.

As to `CC(C)COc1cc(-c2ccc(F)cc2)c(-c2ccc(S(C)(=O)=O)cc2)c(=O)o1`, the IC50 in test [1] amounted to 42.6 µM; in test [2] it was 35 µM.

Turning to `COc1cc(-c2ccc(F)cc2)c(-c2ccc(S(C)(=O)=O)cc2)c(=O)o1`, the inhibition in vivo at 1 mg/kg with Rattus norvegicus [3] worked out at 72.6%; in the test on Rattus norvegicus [4] it was 30%; in the test on Rattus norvegicus [5], 49%; with Rattus norvegicus [6], 30.6%. Also, the results for the half-inhibitory concentration (IC50) in test [1] and in test [2] were above 1000 µM and 59.5 µM, respectively.

Take `Cc1cc(-c2ccccc2)c(-c2ccc(S(C)(=O)=O)cc2)c(=O)o1`: the inhibition in vivo at 1 mg/kg in the test with Rattus norvegicus [3] was found to be 60.4%; in the test with Rattus norvegicus [4], 23.5%; in the test on Rattus norvegicus [5], 57%; with Rattus norvegicus [6] it was 12.5%.

As to `CC(C)c1cc(-c2ccccc2)c(-c2ccc(S(C)(=O)=O)cc2)c(=O)o1`, the inhibition in vivo at 1 mg/kg in the test with Rattus norvegicus [3] came to 56.9%; with Rattus norvegicus [4] it was 19.5%; in the test on Rattus norvegicus [5], 67.8%; with Rattus norvegicus [6] it was 9.8%.

For the compound `Cc1ccc(-c2cc(C(F)(F)F)nn2-c2ccc(S(N)(=O)=O)cc2)cc1` [CELECOXIB], the inhibition in vivo at 1 mg/kg with Rattus norvegicus [3] was found to be 62%; in the test with Rattus norvegicus [4] it was 58.2%; in the test on Rattus norvegicus [5], 31.7%; with Rattus norvegicus [6], 79.9%.

On to `CC(C)(C)Oc1cc(-c2ccccc2)c(-c2ccc(S(C)(=O)=O)cc2)c(=O)o1`, for which the inhibition in vivo at 1 mg/kg with Rattus norvegicus [3] stood at 80.9%; with Rattus norvegicus [4], 30.1%; with Rattus norvegicus [5], 73.8%; in the test on Rattus norvegicus [6] it was 29%. The values for the IC50 in test [1] and in test [2] were above 100 µM and 2.7 µM, respectively.
